Measurements taken from patent US10770169B2, “Method of providing a treatment to a subject based on a dynamic pathway map” (THE REGENTS OF THE UNIVERSITY OF CALIFORNIA, priority 2010, dated 2020).
Like-named read-outs stand apart in the source and are kept apart here.

Key:
Format in all cases: cell-based, human
[1] = test system: breast cancer cell lines with aberrant vs normal copy number; assay: Association of recurrent copy number changes and response (t-test on GI50); conditions: FDR p<0.2
From the text: We used a t-test to assess the association between recurrent copy number changes (at 8q24 (MYC), 11q13 (CCND1), 20q13 (STK15/AURKA)) and drug sensitivity. We combined into a single group cell lines with low or no amplification and compared them to cell lines with high amplification. […] Cell lines for which the GI50 was equal to the maximum concentration tested were omitted from analysis. We omitted compounds where any group had fewer than five samples.

[2] = test system: panel of 55 breast cancer cell lines; assay: Cell growth inhibition assay (Cell Titer Glo, 72 h, 9 doses; GI50, TGI, LC50); conditions: Homo sapiens, read-out: GI50 (converted)
[3] = test system: luminal, basal, claudin-low and ERBB2AMP breast cancer cell lines; assay: Associations of clinically relevant subtypes and response (non-parametric ANOVA or t-test on GI50 ranks)
Procedure, shortened: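 Significance was set at FDR p<0.20 after combining p-values across three test sets. Subtype–response associations came from rank-based non-parametric ANOVA or t-tests on GI50. For three-class comparisons, post-hoc tests of each group against the rest identified the most sensitive group, with FDR correction.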

C/C(=C\c1csc(C)n1)[C@@H]1C[C@@H]2O[C@]2(C)CCC[C@H](C)[C@H](O)[C@@H](C)C(=O)C(C)(C)[C@@H](O)CC(=O)N1 [Ixabepilone]
association of response with homozygous deletion at 9p21 (CDKN2A) [1]: associated with response
GI50 ([2]; 600MPE cell line, censored GI50 values): 5250 nM
GI50 ([2]; AU565, AU565 cell line, censored GI50 values): 4.27 nM
GI50 ([2]; AU565, cell line AU565): 4.27 nM
GI50 ([2]; BT-20, BT20 cell line, censored GI50 values): 8.13 nM
GI50 ([2]; BT-20, cell line BT20): 8.13 nM
GI50 ([2]; BT-474, BT474 cell line, censored GI50 values): 8.32 nM
GI50 ([2]; BT-474, cell line BT474): 8.32 nM
GI50 ([2]; BT-483, BT483 cell line, censored GI50 values): 5370 nM
GI50 ([2]; BT-483, cell line BT483): 5370 nM
GI50 ([2]; BT-549, BT549 cell line, censored GI50 values): 6.03 nM
GI50 ([2]; BT-549, cell line BT549): 6.03 nM
GI50 ([2]; CAMA-1, CAMA1 cell line, censored GI50 values): 1 nM
GI50 ([2]; CAMA-1, cell line CAMA1): 1 nM
GI50 ([2]; HCC38, HCC38 cell line, censored GI50 values): 2.82 nM
GI50 ([2]; HCC38, cell line HCC38): 2.82 nM
GI50 ([2]; HCC70, HCC70 cell line, censored GI50 values): 1.41 nM
GI50 ([2]; HCC70, cell line HCC70): 1.41 nM
GI50 ([2]; HCC202, HCC202 cell line, censored GI50 values): 20000 nM
GI50 ([2]; HCC202, cell line HCC202): 20000 nM
GI50 ([2]; HCC1143, HCC1143 cell line, censored GI50 values): 9.77 nM
GI50 ([2]; HCC1143, cell line HCC1143): 9.77 nM
GI50 ([2]; HCC1187, HCC1187 cell line, censored GI50 values): 2.19 nM
GI50 ([2]; HCC1187, cell line HCC1187): 2.19 nM
GI50 ([2]; HCC1395, HCC1395 cell line, censored GI50 values): 12 nM
GI50 ([2]; HCC1395, cell line HCC1395): 12 nM
GI50 ([2]; HCC1419, HCC1419 cell line, censored GI50 values): 11000 nM
GI50 ([2]; HCC1419, cell line HCC1419): 11000 nM
GI50 ([2]; HCC1428, HCC1428 cell line, censored GI50 values): 58.9 nM
GI50 ([2]; HCC1428, cell line HCC1428): 58.9 nM
GI50 ([2]; HCC1500, HCC1500 cell line, censored GI50 values): 3.24 nM
GI50 ([2]; HCC1500, cell line HCC1500): 3.24 nM
GI50 ([2]; HCC1806, HCC1806 cell line, censored GI50 values): 4.9 nM
GI50 ([2]; HCC1806, cell line HCC1806): 4.9 nM
GI50 ([2]; HCC1937, HCC1937 cell line, censored GI50 values): 309 nM
GI50 ([2]; HCC1937, cell line HCC1937): 309 nM
GI50 ([2]; HCC1954, HCC1954 cell line, censored GI50 values): 1.95 nM
GI50 ([2]; HCC1954, cell line HCC1954): 1.95 nM
GI50 ([2]; HCC2185 cell line, censored GI50 values): 9120 nM
GI50 ([2]; HCC3153 cell line, censored GI50 values): 6.17 nM
GI50 ([2]; LY2 cell line, censored GI50 values): 6.03 nM
GI50 ([2]; MCF7, MCF7 cell line, censored GI50 values): 0.363 nM
GI50 ([2]; MCF7, cell line MCF7): 0.363 nM
GI50 ([2]; MDA-MB-134-VI, MDAMB134VI cell line, censored GI50 values): 1.62 nM
GI50 ([2]; MDA-MB-157, MDAMB157 cell line, censored GI50 values): 4.9 nM
GI50 ([2]; MDA-MB-157, cell line MDAMB157): 4.9 nM
GI50 ([2]; MDA-MB-231, MDAMB231 cell line, censored GI50 values): 0.457 nM
GI50 ([2]; MDA-MB-231, cell line MDAMB231): 0.457 nM
GI50 ([2]; MDA-MB-361, MDAMB361 cell line, censored GI50 values): 2.29 nM
GI50 ([2]; MDA-MB-361, cell line MDAMB361): 2.29 nM
GI50 ([2]; MDA-MB-415, MDAMB415 cell line, censored GI50 values): 8.13 nM
GI50 ([2]; MDA-MB-415, cell line MDAMB415): 8.13 nM
GI50 ([2]; MDA-MB-436, MDAMB436 cell line, censored GI50 values): 5.75 nM
GI50 ([2]; MDA-MB-436, cell line MDAMB436): 5.75 nM
GI50 ([2]; MDA-MB-453, MDAMB453 cell line, censored GI50 values): 7.76 nM
GI50 ([2]; MDA-MB-453, cell line MDAMB453): 7.76 nM
GI50 ([2]; MDA-MB-468, MDAMB468 cell line, censored GI50 values): 1.32 nM
GI50 ([2]; MDA-MB-468, cell line MDAMB468): 1.32 nM
GI50 ([2]; SK-BR-3, SKBR3 cell line, censored GI50 values): 10.5 nM
GI50 ([2]; SK-BR-3, cell line SKBR3): 10.5 nM
GI50 ([2]; SUM52PE, SUM52PE cell line, censored GI50 values): 2.95 nM
GI50 ([2]; SUM52PE, cell line SUM52PE): 2.95 nM
GI50 ([2]; SUM149PT, SUM149PT cell line, censored GI50 values): 5.5 nM
GI50 ([2]; SUM149PT, cell line SUM149PT): 5.5 nM
GI50 ([2]; SUM185PE, SUM185PE cell line, censored GI50 values): 8.51 nM
GI50 ([2]; SUM185PE, cell line SUM185PE): 8.51 nM
GI50 ([2]; SUM225CWN, SUM225CWN cell line, censored GI50 values): 20000 nM
GI50 ([2]; SUM225CWN, cell line SUM225CWN): 20000 nM
GI50 ([2]; SUM1315MO2, SUM1315MO2 cell line, censored GI50 values): 6.03 nM
GI50 ([2]; SUM-159-PT, SUM159PT cell line, censored GI50 values): 6.92 nM
GI50 ([2]; SUM-159-PT, cell line SUM159PT): 6.92 nM
GI50 ([2]; T47D, T47D cell line, censored GI50 values): 7.94 nM
GI50 ([2]; T47D, cell line T47D): 7.94 nM
GI50 ([2]; UACC-812, UACC812 cell line, censored GI50 values): 5890 nM
GI50 ([2]; UACC-812, cell line UACC812): 5890 nM
GI50 ([2]; UACC-893, UACC893 cell line, censored GI50 values): 6.31 nM
GI50 ([2]; UACC-893, cell line UACC893): 6.31 nM
GI50 ([2]; ZR-75-1, ZR751 cell line, censored GI50 values): 295 nM
GI50 ([2]; ZR-75-1, cell line ZR751): 295 nM
GI50 ([2]; cell line 600MPE): 5250 nM
GI50 ([2]; cell line HCC2185): 9120 nM
GI50 ([2]; cell line HCC3153): 6.17 nM
GI50 ([2]; cell line LY2): 6.03 nM
GI50 ([2]; cell line MDAMB134V): 1.62 nM
GI50 ([2]; cell line SUM1315MO): 6.03 nM
subtype-specific response (sensitivity by transcriptional subtype) ([3]; GI50 across subtypes): more active against basal and claudin-low cell lines
Subtype specificity ([3]; Table 6, most sensitive subtype, FDR p<0.20): Basal + Claudin-low
